# Experiments:
# bedstraw = assay: Test B pre/postemergence bedstraw; type: in vivo, Galium aparine; conditions: Postemergence, scale 0 to 10 (0 no effect, 10 complete control)
# Procedure, shortened: (§1)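 Test chemicals in a non-phytotoxic solvent mixture with surfactant were sprayed preemergence onto planted seeds and postemergence onto plants 2 to 18 cm tall (1- to 4-leaf stage). After twelve to sixteen days in a greenhouse, injury was visually rated against untreated controls from 0 (no effect) to 10 (complete control).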
# blackgrass = assay: Test B pre/postemergence blackgrass; type: in vivo, Alopecurus myosuroides; conditions: for Plant response rating, Blackgrass: scale of 0 to 10 where 0 is no effect and 10 is complete control
# Procedure, shortened: as §1
# surinam grass = assay: Test B pre/postemergence surinam grass; type: in vivo, Brachiaria decumbens; conditions: for Plant response rating, B. signalgrass: scale of 0 to 10 where 0 is no effect and 10 is complete control
# Procedure, shortened: as §1
# cocklebur = assay: Test B pre/postemergence cocklebur; type: in vivo, Xanthium strumarium; conditions: for Plant response rating, Cocklebur: scale of 0 to 10 where 0 is no effect and 10 is complete control
# Procedure, shortened: as §1
# corn = assay: Test B pre/postemergence corn; type: in vivo, Zea mays; conditions: for Plant response rating, Corn: scale of 0 to 10 where 0 is no effect and 10 is complete control
# Procedure, shortened: as §1
# giant foxtail = assay: Test B pre/postemergence giant foxtail; type: in vivo, Setaria faberii; conditions: for Plant response rating, Giant foxtail: scale of 0 to 10 where 0 is no effect and 10 is complete control
# Procedure, shortened: as §1
# morningglory = assay: Test B pre/postemergence morningglory; type: in vivo, Ipomoea hederacea; conditions: for Plant response rating, Morningglory: scale of 0 to 10 where 0 is no effect and 10 is complete control
# Procedure, shortened: as §1
# pigweed = assay: Test B pre/postemergence pigweed; type: in vivo, Amaranthus retroflexus; conditions: for Plant response rating, Redroot pigweed: scale of 0 to 10 where 0 is no effect and 10 is complete control
# Procedure, shortened: as §1
# rape = assay: Test B pre/postemergence rape; type: in vivo, Brassica napus; conditions: for Plant response rating, Rape: scale of 0 to 10 where 0 is no effect and 10 is complete control
# Procedure, shortened: as §1
# soybean = assay: Test B pre/postemergence soybean; type: in vivo, Glycine max; conditions: for Plant response rating, Soybean: scale of 0 to 10 where 0 is no effect and 10 is complete control
# Procedure, shortened: as §1
# sugar beet = assay: Test B pre/postemergence sugar beet; type: in vivo, Beta vulgaris; conditions: for Plant response rating, Sugarbeets: scale of 0 to 10 where 0 is no effect and 10 is complete control
# Procedure, shortened: as §1
# velvetleaf = assay: Test B pre/postemergence velvetleaf; type: in vivo, Abutilon theophrasti; conditions: for Plant response rating, Velvetleaf: scale of 0 to 10 where 0 is no effect and 10 is complete control
# Procedure, shortened: as §1
# purple nutsedge = assay: Test B pre/postemergence purple nutsedge; type: in vivo, Cyperus rotundus; conditions: for Plant response rating, Nutsedge: scale of 0 to 10 where 0 is no effect and 10 is complete control
# Procedure, shortened: as §1
# smallflower flatsedge = assay: Test B flood test smallflower flatsedge; type: in vivo, Cyperus difformis
# Procedure, shortened: (§2)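 Plants were grown to the 2-leaf stage before treatment with test chemical, then held in a greenhouse for twelve to sixteen days. Injury was visually rated against untreated controls on a 0–10 scale, where 0 is no effect and 10 is complete control.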
# duck salad = assay: Test B flood test duck salad; type: in vivo, Heteranthera limosa
# Procedure, shortened: as §2
# bamyardgrass = assay: Test B flood test barnyardgrass; type: in vivo, Echinochloa crus-galli
# Procedure, shortened: as §2
# [1] = Postemergence, Rate 31 g/ha, visual rating, scale 0 to 10 (0 no effect, 10 complete control)
# [2] = Postemergence, Rate 250 g/ha, scale 0 to 10
# [3] = Preemergence, Rate 31 g/ha, visual rating, scale 0 to 10 (0 no effect, 10 complete control)
# [4] = Preemergence, Rate 250 g/ha, scale 0 to 10, 0 is no effect, 10 is complete control
# [5] = Rate 62 g/ha, Postemergence, scale 0 to 10 (0 no effect, 10 complete control)
# [6] = Rate 125 g/ha, Postemergence, scale 0 to 10, 0 is no effect, 10 is complete control
# [7] = Rate 31 g/ha, Pre-emergence section (flood test species), scale 0 to 10
# [8] = Rate 62 g/ha, flood test species, Pre-emergence, visual evaluation after twelve to sixteen days
# [9] = Rate 125 g/ha, under heading Pre-emergence, flood test species, visual evaluation after twelve to sixteen days
# [10] = Rate 250 g/ha, Pre-emergence (flood test species), scale 0 to 10, 0 is no effect, 10 is complete control
compound,measurement,setting,value
Cc1nc(C)c(C(C)n2c(=O)on(C(=O)N(c3ccccc3)C(C)C)c2=O)s1 (stereo not shown) [Compound 442],Bedstraw plant response rating,"bedstraw; Rate 31 g/ha, visual rating",0
same,Bedstraw plant response rating,bedstraw; Rate 62 g/ha,0
same,Blackgrass plant response rating,blackgrass; [1],0
same,Blackgrass plant response rating,blackgrass; [2],0
same,Blackgrass plant response rating,blackgrass; [3],0
same,"Plant response rating, Blackgrass","blackgrass; Preemergence, Rate 62 g/ha",0
same,"Plant response rating, Blackgrass","blackgrass; Preemergence, Rate 125 g/ha",0
same,Blackgrass plant response rating,blackgrass; [4],0
same,Blackgrass plant response rating,blackgrass; [5],0
same,Blackgrass plant response rating,blackgrass; [6],0
same,B. signalgrass plant response rating,surinam grass; [1],0
same,B. signalgrass plant response rating,"surinam grass; Postemergence, Rate 250 g/ha, scale 0 to 10, 0 no effect, 10 complete control",0
same,B. signalgrass plant response rating,surinam grass; [3],0
same,"Plant response rating, B. signalgrass","surinam grass; Preemergence, Rate 62 g/ha",0
same,"Plant response rating, B. signalgrass","surinam grass; Preemergence, Rate 125 g/ha",0
same,B. signalgrass plant response rating,surinam grass; [4],0
same,B. signalgrass plant response rating,surinam grass; [5],0
same,B. signalgrass plant response rating,surinam grass; [6],0
same,Cocklebur plant response rating,cocklebur; [1],0
same,Cocklebur plant response rating,cocklebur; [2],0
same,Cocklebur plant response rating,cocklebur; [3],0
same,"Plant response rating, Cocklebur","cocklebur; Preemergence, Rate 62 g/ha",0
same,"Plant response rating, Cocklebur","cocklebur; Preemergence, Rate 125 g/ha",0
same,Cocklebur plant response rating,cocklebur; [4],0
same,Cocklebur plant response rating,cocklebur; [5],0
same,Cocklebur plant response rating,cocklebur; [6],0
same,Corn plant response rating,corn; [1],0
same,Corn plant response rating,corn; [2],0
same,Corn plant response rating,corn; [3],0
same,"Plant response rating, Corn","corn; Preemergence, Rate 62 g/ha",0
same,"Plant response rating, Corn","corn; Preemergence, Rate 125 g/ha",0
same,Corn plant response rating,corn; [4],0
same,Corn plant response rating,corn; [5],0
same,Corn plant response rating,corn; [6],0
same,Giant foxtail plant response rating,giant foxtail; [1],0
same,Giant foxtail plant response rating,giant foxtail; [2],0
same,Giant foxtail plant response rating,giant foxtail; [3],0
same,"Plant response rating, Giant foxtail","giant foxtail; Preemergence, Rate 62 g/ha",0
same,"Plant response rating, Giant foxtail","giant foxtail; Preemergence, Rate 125 g/ha",0
same,Giant foxtail plant response rating,giant foxtail; [4],3
same,Giant foxtail plant response rating,giant foxtail; [5],0
same,Giant foxtail plant response rating,giant foxtail; [6],0
same,Morningglory plant response rating,morningglory; [1],1
same,Morningglory plant response rating,morningglory; [2],7
same,"Plant response rating, Morningglory","morningglory; Preemergence, Rate 62 g/ha",0
same,"Plant response rating, Morningglory","morningglory; Preemergence, Rate 125 g/ha",0
same,Morningglory plant response rating,morningglory; [4],0
same,Morningglory plant response rating,morningglory; [5],4
same,Morningglory plant response rating,morningglory; [6],4
same,Redroot pigweed plant response rating,pigweed; [1],0
same,Redroot pigweed plant response rating,pigweed; [2],0
same,"Plant response rating, Redroot pigweed","pigweed; Preemergence, Rate 62 g/ha",0
same,"Plant response rating, Redroot pigweed","pigweed; Preemergence, Rate 125 g/ha",0
same,Redroot pigweed plant response rating,pigweed; [4],0
same,Redroot pigweed plant response rating,pigweed; [5],0
same,Redroot pigweed plant response rating,pigweed; [6],0
same,Rape plant response rating,rape; [1],0
same,Rape plant response rating,rape; [2],0
same,"Plant response rating, Rape","rape; Preemergence, Rate 62 g/ha",0
same,"Plant response rating, Rape","rape; Preemergence, Rate 125 g/ha",0
same,Rape plant response rating,rape; [4],0
same,Rape plant response rating,rape; [5],0
same,Rape plant response rating,rape; [6],0
same,Soybean plant response rating,soybean; [1],0
same,Soybean plant response rating,soybean; [2],0
same,"Plant response rating, Soybean","soybean; Preemergence, Rate 62 g/ha",0
same,"Plant response rating, Soybean","soybean; Preemergence, Rate 125 g/ha",0
same,Soybean plant response rating,soybean; [4],0
same,Soybean plant response rating,soybean; [5],0
same,Soybean plant response rating,soybean; [6],0
same,Sugarbeets plant response rating,sugar beet; [1],0
same,Sugarbeets plant response rating,sugar beet; [2],0
same,"Plant response rating, Sugarbeets","sugar beet; Preemergence, Rate 62 g/ha",0
same,"Plant response rating, Sugarbeets","sugar beet; Preemergence, Rate 125 g/ha",0
same,Sugarbeets plant response rating,sugar beet; [4],0
same,Sugarbeets plant response rating,sugar beet; [5],0
same,Sugarbeets plant response rating,sugar beet; [6],0
same,Velvetleaf plant response rating,velvetleaf; [1],0
same,Velvetleaf plant response rating,velvetleaf; [2],0
same,"Plant response rating, Velvetleaf","velvetleaf; Preemergence, Rate 62 g/ha",0
same,"Plant response rating, Velvetleaf","velvetleaf; Preemergence, Rate 125 g/ha",0
same,Velvetleaf plant response rating,velvetleaf; [4],0
same,Velvetleaf plant response rating,velvetleaf; [5],0
same,Velvetleaf plant response rating,velvetleaf; [6],0
same,Nutsedge plant response rating,purple nutsedge; [1],0
same,Nutsedge plant response rating,purple nutsedge; [2],0
same,"Plant response rating, Nutsedge","purple nutsedge; Preemergence, Rate 62 g/ha",0
same,"Plant response rating, Nutsedge","purple nutsedge; Preemergence, Rate 125 g/ha",0
same,Nutsedge plant response rating,purple nutsedge; [4],0
same,Nutsedge plant response rating,purple nutsedge; [5],0
same,Nutsedge plant response rating,purple nutsedge; [6],0
same,S. Flatsedge plant response rating,smallflower flatsedge; [7],0
same,"Plant response rating, S. Flatsedge (0 to 10 scale, 0 is no effect, 10 is complete control)",smallflower flatsedge; [8],0
same,"S. Flatsedge plant response rating (0 to 10 scale, 0 is no effect, 10 is complete control)",smallflower flatsedge; [9],0
same,S. Flatsedge plant response rating,smallflower flatsedge; [10],0
same,Ducksalad plant response rating,duck salad; [7],0
same,"Plant response rating, Ducksalad (0 to 10 scale, 0 is no effect, 10 is complete control)",duck salad; [8],0
same,"Ducksalad plant response rating (0 to 10 scale, 0 is no effect, 10 is complete control)",duck salad; [9],0
same,Ducksalad plant response rating,duck salad; [10],0
same,Barnyardgrass plant response rating,bamyardgrass; [7],0
same,"Plant response rating, Barnyardgrass (0 to 10 scale, 0 is no effect, 10 is complete control)",bamyardgrass; [8],0
same,"Barnyardgrass plant response rating (0 to 10 scale, 0 is no effect, 10 is complete control)",bamyardgrass; [9],0
same,Barnyardgrass plant response rating,bamyardgrass; [10],0

# Reference: patent US6737383B1, “Herbicidal oxadiazolidines” (priority 1999, dated 2004)
